Data from US5594157A, “Process for making taxol derivatives” (Abbott Laboratories, priority 1995, dated 1997).
Converted amounts (≈) assume the structure as drawn. Read-outs that look alike come from different tables or passages of the source.

Columns and labels:
A549 = test: In vitro tumor cell cytotoxicity, three day MTT microtiter assay (A549); format: cell-based, human; settings: for IC50: Homo sapiens, read-out: In vitro tumor cell cytotoxicity (IC50)
Description: (§1) A three day microtiter assay was used to measure the growth inhibition of cultured cells exposed to a range of drug concentrations. Metabolic activity was measured by the cells' ability to reduce the tetrazolium dye, MTT (3-(4,5-dimethylthiazol-2-yl-2,5-diphenyltetrazolium bromide) to a quantifiable colored end product, which absorbs at 570 nm in the visible spectrum. Surviving cells reduce the MTT dye.
(§2) Test compounds were dissolved in dimethyl sulfoxide (DMSO) and diluted, first with Earle's Balanced Salt Solution, followed by culture medium, to twice the highest concentration of compound to be tested. From this concentrated stock, two-fold serial dilutions were prepared in 96-well microtiter trays, each well containing twice the desired final concentration of compound. Each concentration was tested in triplicate and compared to triplicate drug-free controls.
(§3) The cells were grown in the same medium used for diluting the compounds and then harvested using trypsinization. This involved removing the medium by aspiration; rinsing the cell monolayer twice with Earle's Balanced Salt Solution; adding trypsin (0.05%)/EDTA (0.53 mM; for each 25 cm^2, approximately 0.2 mL), tilting to cover the monolayer, and then withdrawing trypsin leaving only a thin film of solution; incubating at room temperature until the cell monolayers detached (as determined by visual and/or microscopic observation); adding medium contaiing fetal calf serum to stop the action of the trypsin and resuspend the cells; triturating to aid dissociation of cell clumps; and determining the number of cells per milliliter by electronic cell counter (e.g. Coulter Counter) or by mixing an aliquot of cell suspension with Trypan Blue (0.4% in normal saline) and counting the viable cells using a hemacytometer.
(§4) After harvesting and determination of viable cell counts, cell density was adjusted to 25,000 cells/mL. Inoculum (0.1 mL) containing the cells was then added to each well for a final concentration of 2,500 cells per well. Addition of the inoculum diluted the test compounds to the desired final concentration.
(§5) Microtiter trays were then incubated for three days at 36° C. in a humidified atmosphere containing 5% carbon dioxide. After three days, 20 microtiters of 5 mg/mL MTT in phosphate-buffered saline solution were added to each well. Trays were returned to the incubator for two to four hours to allow the surviving cells to reduce the dye. Medium and unreduced dye were removed by aspiration. DMSO was added to each well to dissolve the water-insoluble, colored end product of the dye reduction so that it could be measured spectrophotometrically at 570 nm.

P-388 = test: In vitro tumor cell cytotoxicity, three day MTT microtiter assay (P-388); format: cell-based, mouse; settings: for IC50: P388, 72 h, read-out: In vitro tumor cell cytotoxicity (IC50)
Description: as §1, §2, §3, §4, §5

[1] = P-388 (mouse leukemia), 3 days, MTT, absorbance at 570 nm
[2] = 72 h, A549, 3 days, MTT, absorbance at 570 nm

SMILES	IC50 (A549; A549, 72 h)	IC50 (P-388; Mus musculus)	IC50 (A549; [2])	IC50 (P-388; [1])	further results
CC(=O)O[C@@H]1C2=C(C)[C@@H](OC(=O)[C@H](O)[C@@H](NC(=O)c3ccccc3)c3ccccc3)C[C@@](O)([C@@H](OC(=O)c3ccccc3)[C@@H]3[C@]4(OC(C)=O)CO[C@@H]4C[C@H](O)[C@@]3(C)[C@H]1O)C2(C)C [Example 8, 9-Dihydrotaxol]	0.016 µg/mL (≈ 0.0187 µM)	0.049 µg/mL (≈ 0.0572 µM)			
CC(=O)O[C@@]12CO[C@@H]1C[C@H](O)[C@]1(C)[C@@H]2[C@H](OC(=O)c2ccccc2)[C@]2(O)C[C@H](OC(=O)[C@H](O)[C@@H](NC(=O)c3ccccc3)c3ccccc3)C(C)=C([C@@H](O)[C@@H]1O)C2(C)C [Example 9, 10-Deacetyl-9-dihydrotaxol]					In vitro tumor cell cytotoxicity (IC50) (A549; A549, 3 days, MTT, absorbance at 570 nm): 0.011 µg/mL; In vitro tumor cell cytotoxicity (IC50) (P-388; [1]): 0.14 µg/mL
CC(=O)O[C@@H]1C2=C(C)[C@@H](OC(=O)[C@H](O)[C@@H](NC(=O)c3ccccc3)c3ccccc3)C[C@@](O)([C@@H](OC(=O)c3ccccc3)[C@@H]3[C@]4(OC(C)=O)CO[C@@H]4C[C@@H]4OC(C)(C)O[C@@H]1[C@]43C)C2(C)C [Example 10, 9-Dihydrotaxol-7,9-isopropylidene ketal]	0.025 µg/mL (≈ 0.0279 µM)	0.042 µg/mL (≈ 0.0469 µM)			
CCC1O[C@H]2C[C@H]3OC[C@@]3(OC(C)=O)[C@H]3[C@H](OC(=O)c4ccccc4)[C@]4(O)C[C@H](OC(=O)[C@H](O)[C@@H](NC(=O)c5ccccc5)c5ccccc5)C(C)=C([C@@H](OC(C)=O)[C@H](O1)[C@]23C)C4(C)C (stereo partly drawn) [Example 11, 9-Dihydrotaxol-7,9-propylidene acetal]	0.023 µg/mL (≈ 0.0257 µM)	0.022 µg/mL (≈ 0.0246 µM)			
CC(=O)O[C@@H]1C2=C(C)[C@@H](OC(=O)[C@H](O)[C@@H](NC(=O)c3ccccc3)c3ccccc3)C[C@@](O)([C@@H](OC(=O)c3ccccc3)[C@@H]3[C@]4(OC(C)=O)CO[C@@H]4C[C@@H]4OC(c5ccccc5)O[C@@H]1[C@]43C)C2(C)C (stereo partly drawn) [Example 12, 9-Dihydrotaxol-7,9-benzylidene acetal]			1 µg/mL (≈ 1.06 µM)	1 µg/mL (≈ 1.06 µM)	
CC(=O)O[C@@H]1C2=C(C)[C@@H](OC(=O)[C@H](O)[C@@H](NC(=O)c3ccccc3)c3ccccc3)C[C@@](O)([C@@H](OC(=O)c3ccccc3)[C@@H]3[C@]4(OC(C)=O)CO[C@@H]4C[C@@H]4OC(CC(O)CO)O[C@@H]1[C@]43C)C2(C)C (stereo partly drawn) [Example 13, 9-Dihydrotaxol-7,9-(3,4-dihydroxy)butylidene acetal]	0.3 µg/mL (≈ 0.318 µM)	0.18 µg/mL (≈ 0.191 µM)			
CC(=O)O[C@@H]1C2=C(C)[C@@H](OC(=O)[C@H](O)[C@@H](NC(=O)c3ccccc3)c3ccccc3)C[C@@](O)([C@@H](OC(=O)c3ccccc3)[C@@H]3[C@]4(OC(C)=O)CO[C@@H]4C[C@@H]4OC(=S)O[C@@H]1[C@]43C)C2(C)C [Example 14, 9-Dihydrotaxol-7,9-thionocarbonate]	0.019 µg/mL (≈ 0.0212 µM)	0.035 µg/mL (≈ 0.039 µM)			
C=CCO[C@H]1C[C@H]2OC[C@@]2(OC(C)=O)[C@H]2[C@H](OC(=O)c3ccccc3)[C@]3(O)C[C@H](OC(=O)[C@H](O)[C@@H](NC(=O)c4ccccc4)c4ccccc4)C(C)=C([C@@H](OC(C)=O)[C@H](O)[C@]12C)C3(C)C [Example 15, 9-Dihydrotaxol-7-O-allyl ether]	0.001 µg/mL (≈ 0.00112 µM)	0.0053 µg/mL (≈ 0.00592 µM)			
CC(=O)O[C@@H]1C2=C(C)[C@@H](OC(=O)[C@H](O)[C@@H](NC(=O)c3ccccc3)c3ccccc3)C[C@@](O)([C@@H](OC(=O)c3ccccc3)[C@@H]3[C@]4(OC(C)=O)CO[C@@H]4C[C@H](OCC(O)CO)[C@@]3(C)[C@H]1O)C2(C)C (stereo partly drawn) [Example 16, 9-dihydrotaxol 7-O-(2,3-dihydroxypropyl) ether]			0.626 µg/mL (≈ 0.673 µM)	> 1 µg/mL	
CCN(CC)CCO[C@H]1C[C@H]2OC[C@@]2(OC(C)=O)[C@H]2[C@H](OC(=O)c3ccccc3)[C@]3(O)C[C@H](OC(=O)[C@H](O)[C@@H](NC(=O)c4ccccc4)c4ccccc4)C(C)=C([C@@H](OC(C)=O)[C@H](O)[C@]12C)C3(C)C [Example 17]	0.4 µg/mL (≈ 0.419 µM)	0.31 µg/mL (≈ 0.325 µM)			
CC(=O)O[C@@H]1C2=C(C)[C@@H](OC(=O)[C@H](O)[C@@H](NC(=O)c3ccccc3)c3ccccc3)C[C@@](O)([C@@H](OC(=O)c3ccccc3)[C@@H]3[C@]4(OC(C)=O)CO[C@@H]4C[C@H](OCCO)[C@@]3(C)[C@H]1O)C2(C)C [Example 18, 9-Dihydrotaxol 7-O-(2-Hydroxyethyl) ether]			0.039 µg/mL (≈ 0.0433 µM)	0.17 µg/mL (≈ 0.189 µM)	
CC(=O)OCCO[C@H]1C[C@H]2OC[C@@]2(OC(C)=O)[C@H]2[C@H](OC(=O)c3ccccc3)[C@]3(O)C[C@H](OC(=O)[C@H](O)[C@@H](NC(=O)c4ccccc4)c4ccccc4)C(C)=C([C@@H](OC(C)=O)[C@H](O)[C@]12C)C3(C)C [Example 19, 9-Dihydrotaxol 7-O-(2-Acetoxyethyl) ether]			0.12 µg/mL (≈ 0.127 µM)	0.079 µg/mL (≈ 0.0839 µM)	
CC(=O)O[C@@H]1C2=C(C)[C@@H](OC(=O)[C@H](O)[C@@H](NC(=O)OC(C)(C)C)c3ccccc3)C[C@@](O)([C@@H](OC(=O)c3ccccc3)[C@@H]3[C@]4(OC(C)=O)CO[C@@H]4C[C@H](O)[C@@]3(C)[C@H]1O)C2(C)C [Example 20, N-Debenzoyl-N-t-butoxycarbonyl-9-dihydrotaxol]			0.0003 µg/mL (≈ 0.000352 µM)	0.0025 µg/mL (≈ 0.00293 µM)	
CC(=O)O[C@@]12CO[C@@H]1C[C@H](O)[C@]1(C)[C@@H]2[C@H](OC(=O)c2ccccc2)[C@]2(O)C[C@H](OC(=O)[C@H](O)[C@@H](NC(=O)OC(C)(C)C)c3ccccc3)C(C)=C([C@@H](O)[C@@H]1O)C2(C)C [Example 21, 10-Deacetyl-N-debenzoyl-N-t-butoxycarbonyl-9-dihydrotaxol]			0.00026 µg/mL (≈ 0.000321 µM)	0.0028 µg/mL (≈ 0.00346 µM)	
CC(=O)O[C@@H]1C2=C(C)[C@@H](OC(=O)[C@H](O)[C@@H](NC(=O)CC(C)(C)C)c3ccccc3)C[C@@](O)([C@@H](OC(=O)c3ccccc3)[C@@H]3[C@]4(OC(C)=O)CO[C@@H]4C[C@H](O)[C@@]3(C)[C@H]1O)C2(C)C [Example 22, N-Debenzoyl-N-t-butylacetyl-9-dihydrotaxol]			0.027 µg/mL (≈ 0.0318 µM)	0.052 µg/mL (≈ 0.0612 µM)	
CC(=O)O[C@@H]1C2=C(C)[C@@H](OC(=O)[C@H](O)[C@@H](NC(=O)OCC(C)C)c3ccccc3)C[C@@](O)([C@@H](OC(=O)c3ccccc3)[C@@H]3[C@]4(OC(C)=O)CO[C@@H]4C[C@H](O)[C@@]3(C)[C@H]1O)C2(C)C [Example 23, N-Debenzoyl-N-isobutoxycarbonyl-9-dihydrotaxol]	0.0043 µg/mL (≈ 0.00505 µM)	0.028 µg/mL (≈ 0.0329 µM)			
CC(=O)O[C@@H]1C2=C(C)[C@@H](OC(=O)[C@H](O)[C@@H](NC(=O)OC34CC5CC(CC(C5)C3)C4)c3ccccc3)C[C@@](O)([C@@H](OC(=O)c3ccccc3)[C@@H]3[C@]4(OC(C)=O)CO[C@@H]4C[C@H](O)[C@@]3(C)[C@H]1O)C2(C)C [Example 24, N-Debenzoyl-N-adamantoxycarbonyl-9-dihydrotaxol]	0.0043 µg/mL (≈ 0.00462 µM)	0.01 µg/mL (≈ 0.0108 µM)			
CC(=O)O[C@@H]1C2=C(C)[C@@H](OC(=O)[C@H](O)[C@@H](NC(=O)OC(C)C)c3ccccc3)C[C@@](O)([C@@H](OC(=O)c3ccccc3)[C@@H]3[C@]4(OC(C)=O)CO[C@@H]4C[C@H](O)[C@@]3(C)[C@H]1O)C2(C)C [Example 25, N-Debenzoyl-N-isopropoxycarbonyl-9-dihydrotaxol]			0.0012 µg/mL (≈ 0.00143 µM)	0.0092 µg/mL (≈ 0.011 µM)	
CC(=O)O[C@@H]1C2=C(C)[C@@H](OC(=O)[C@H](O)[C@@H](NC(=O)OCc3ccccc3)c3ccccc3)C[C@@](O)([C@@H](OC(=O)c3ccccc3)[C@@H]3[C@]4(OC(C)=O)CO[C@@H]4C[C@H](O)[C@@]3(C)[C@H]1O)C2(C)C [Example 26, N-Debenzoyl-N-benzyloxycarbonyl-9-dihydrotaxol]	0.031 µg/mL (≈ 0.035 µM)	0.057 µg/mL (≈ 0.0643 µM)			
CC(=O)O[C@@H]1C2=C(C)[C@@H](OC(=O)[C@H](O)[C@@H](NC(=O)C(C)(C)C)c3ccccc3)C[C@@](O)([C@@H](OC(=O)c3ccccc3)[C@@H]3[C@]4(OC(C)=O)CO[C@@H]4C[C@H](O)[C@@]3(C)[C@H]1O)C2(C)C [Example 28, N-Debenzoyl-N-pivaloyl-9-dihydrotaxol]			0.11 µg/mL (≈ 0.132 µM)	0.083 µg/mL (≈ 0.0993 µM)	
CC(=O)N[C@@H](c1ccccc1)[C@@H](O)C(=O)O[C@H]1C[C@@]2(O)[C@@H](OC(=O)c3ccccc3)[C@@H]3[C@]4(OC(C)=O)CO[C@@H]4C[C@H](O)[C@@]3(C)[C@@H](O)[C@H](OC(C)=O)C(=C1C)C2(C)C [Example 29, N-Debenzoyl-N-acetyl-9-dihydrotaxol]			2.1 µg/mL (≈ 2.65 µM)	2.02 µg/mL (≈ 2.54 µM)	
